Laboratory results as given in US20160257676A1, “Aminoisoquinoline Derivatives as Protein Kinase Inhibitors” (ETERNITY BIOSCIENCE INC., priority 2012, published 2016).
pIC50: −log10 of the molar value.

Assays:
A375 cells = assay: Cell proliferation assay (CellTiter-Glo), A375 cells; assay type: cell-based; conditions: Homo sapiens, A-375, 72 h, 3-day treatment, vs vehicle control (1% DMSO), read-out: A375 cell growth IC50
Protocol: Cell Proliferation Assay:
A375, Colo-205, Calu-6, and SW-480 cells were purchased from American Type Culture Collection (USA). All cells were cultured in the recommended medium and serum concentration. Cells were maintained at 37° C. in a humidified atmosphere with 5% CO2. For cell proliferation assay, cells were seeded in 96-well pates at a density of 1,000 to 5,000 cells per well and cultured overnight at 37° C. in medium supplemented with 5-10% FBS. On the next day, the test articles at various concentrations or vehicle control (1% DMSO) were added into cell culture. After 3-day treatment, the growth of cells was assayed by the CellTiter-Glo® Luminestceaent Cell Viability Assay (Promega).

BRAF^V600E = BRAF^V600E (Homo sapiens, UniProt P15056, V600E); assay: BRAF^V600E enzymatic activity assay (LanthaScreen kinase assay kit, TR-FRET)
BRAF^V600E, sequence (P15056 whole entry V600E): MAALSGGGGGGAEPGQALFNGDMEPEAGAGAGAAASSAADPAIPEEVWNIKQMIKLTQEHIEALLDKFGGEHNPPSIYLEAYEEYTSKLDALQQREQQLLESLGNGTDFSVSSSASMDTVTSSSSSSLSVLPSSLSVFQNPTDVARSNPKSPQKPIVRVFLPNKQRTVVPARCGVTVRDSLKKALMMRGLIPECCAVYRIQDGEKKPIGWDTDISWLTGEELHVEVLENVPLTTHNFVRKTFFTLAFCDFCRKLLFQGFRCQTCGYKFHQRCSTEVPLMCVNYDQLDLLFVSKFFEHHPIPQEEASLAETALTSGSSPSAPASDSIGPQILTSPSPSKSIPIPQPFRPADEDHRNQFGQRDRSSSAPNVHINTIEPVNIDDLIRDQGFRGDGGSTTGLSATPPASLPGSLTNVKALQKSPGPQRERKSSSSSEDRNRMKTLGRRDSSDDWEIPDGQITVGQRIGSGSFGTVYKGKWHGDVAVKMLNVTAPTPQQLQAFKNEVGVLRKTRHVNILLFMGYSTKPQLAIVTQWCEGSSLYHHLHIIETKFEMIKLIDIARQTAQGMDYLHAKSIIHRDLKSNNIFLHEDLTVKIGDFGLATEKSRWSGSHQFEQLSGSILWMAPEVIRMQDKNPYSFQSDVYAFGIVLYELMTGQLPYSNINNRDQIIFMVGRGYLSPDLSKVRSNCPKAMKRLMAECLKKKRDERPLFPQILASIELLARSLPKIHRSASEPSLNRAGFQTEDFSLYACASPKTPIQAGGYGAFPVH
Protocol: The assay was conducted according to the procedure provided in the assay kit. […] The final reaction volume for each reaction was 10 μl. The reaction was stopped by addition of 10 μl of TR-FRET dilution buffer supplemented with kinase quench buffer (10 mM EDTA final) and Tb-anti-pMAP2K1 (2 nM final). […] IC50 value was calculated using appropriate programs in GraphPad Prism by plotting the logarithm of the concentration versus percent inhibition.

Row | Structure (SMILES) | pIC50 (A375 cells) | pIC50 (BRAF^V600E)
1 | CCCS(=O)(=O)Nc1ccc(F)c(-c2ccc3cc(N)ncc3c2)c1F [Example 1, N-(3-(3-aminoisoquinolin-7-yl)-2,4-difluorophenyl)propane-1-sulfonamide] | 6.99 | 5.06
2 | CCCS(=O)(=O)Nc1ccc(F)c(-c2ccc3cc(NC[C@H](C)NC(=O)OC)ncc3c2)c1F [Example 2, (S)-methyl-1-(7-(2,6-difluoro-3-(propylsulfonamido)phenyl)isoquinolin-3-ylamino)propan-2-ylcarbamate] | 6.11 | –
3 | CCCS(=O)(=O)Nc1ccc(F)c(-c2cc3cnc(N)cc3cc2OC)c1F [Example 3, N-(3-(3-amino-6-methoxyisoquinolin-7-yl)-2,4-difluorophenyl)propane-1-sulfonamide] | 6.00 | 6.10
4 | CCCS(=O)(=O)Nc1ccc(F)c(-c2cc3cnc(NC[C@H](C)NC(=O)OC)cc3cc2OC)c1F [Example 4, methyl N-[(1S)-2-[[7-[2,6-difluoro-3-(propylsulfonylamino)phenyl]-6-methoxy-3-isoquinolyl]amino]-1-methyl-ethyl]carbamate] | 7.72 | 6.67
5 | CCCS(=O)(=O)Nc1ccc(F)c(-c2cc3cnc(NC[C@@H](C)NC(=O)OC)cc3cc2OC)c1F [Example 5, methyl N-[(1R)-2-[[7-[2,6-difluoro-3-(propylsulfonylamino)phenyl]-6-methoxy-3-isoquinolyl]amino]-1-methyl-ethyl]carbamate] | 6.14 | 5.44
6 | CCCS(=O)(=O)Nc1ccc(F)c(-c2cc3cnc(NC[C@H](C)NC(=O)OC)cc3cc2OCCF)c1F [Example 6, methyl N-[(1S)-2-[[7-[2,6-difluoro-3-(propylsulfonylamino)phenyl]-6-(2-fluoroethoxy)-3-isoquinolyl]amino]-1-methyl-ethyl]carbamate] | 6.80 | 7.00
7 | CCCS(=O)(=O)Nc1ccc(F)c(-c2cc3cnc(NC[C@H](C)NC(=O)OC)cc3cc2CC)c1F [Example 7, methyl N-[(1S)-2-[[7-[2,6-difluoro-3-(propylsulfonylamino)phenyl]-6-ethyl-3-isoquinolyl]amino]-1-methyl-ethyl]carbamate] | 6.51 | 6.25
8 | CCCS(=O)(=O)Nc1ccc(F)c(-c2ccc3c(cnc4[nH]ncc43)c2)c1F [Example 8, N-(2,4-difluoro-3-(3H-pyrazolo[3,4-c]isoquinolin-7-yl)phenyl)propane-1-sulfonamide] | 6.64 | 7.15
9 | CCCS(=O)(=O)Nc1ccc(F)c(-c2ccc3c(cnc4[nH]nc(Br)c43)c2)c1F [Example 9, N-(3-(1-bromo-3H-pyrazolo[3,4-c]isoquinolin-7-yl)-2,4-difluorophenyl)propane-1-sulfonamide] | 6.84 | –
10 | CCCS(=O)(=O)Nc1ccc(F)c(-c2ccc3c(cnc4[nH]nc(C5CC5)c43)c2)c1F [Example 10, N-(3-(1-cyclopropyl-3H-pyrazolo[3,4-c]isoquinolin-7-yl)-2,4-difluorophenyl)propane-1-sulfonamide] | 6.84 | 5.57
11 | CCCS(=O)(=O)Nc1ccc(F)c(-c2ccc3c(cnc4[nH]ncc43)c2)c1Cl [Example 11, N-(2-chloro-4-fluoro-3-(3H-pyrazolo[3,4-c]isoquinolin-7-yl)phenyl)propane-1-sulfonamide] | 7.02 | 7.74
12 | CCCS(=O)(=O)Nc1ccc(F)c(-c2ccc3c(cnc4[nH]nc(Br)c43)c2)c1Cl [Example 12, N-(3-(1-bromo-3H-pyrazolo[3,4-c]isoquinolin-7-yl)-2-chloro-4-fluorophenyl)propane-1-sulfonamide] | 6.84 | –
13 | CCCS(=O)(=O)Nc1ccc(F)c(-c2ccc3c(cnc4[nH]nc(C5CC5)c43)c2)c1Cl [Example 13, N-(2-chloro-3-(1-cyclopropyl-3H-pyrazolo[3,4-c]isoquinolin-7-yl)-4-fluorophenyl)propane-1-sulfonamide] | 7.19 | 7.70
14 | O=S(=O)(CCCF)Nc1ccc(F)c(-c2ccc3c(cnc4[nH]ncc43)c2)c1F [Example 14, N-(2,4-difluoro-3-(3H-pyrazolo[3,4-c]isoquinolin-7-yl)phenyl)-3-fluoropropane-1-sulfonamide] | 7.18 | 7.30
15 | O=S(=O)(CCCF)Nc1ccc(F)c(-c2ccc3c(cnc4[nH]ncc43)c2)c1Cl [Example 15, N-(2-chloro-4-fluoro-3-(3H-pyrazolo[3,4-c]isoquinolin-7-yl)phenyl)-3-fluoropropane-1-sulfonamide] | 7.64 | 8.18
16 | CCCS(=O)(=O)Nc1ccc(Cl)c(-c2ccc3c(cnc4[nH]ncc43)c2)c1Cl [Example 16, N-(2,4-dichloro-3-(3H-pyrazolo[3,4-c]isoquinolin-7-yl)phenyl)propane-1-sulfonamide] | 6.47 | 7.38
17 | CCCS(=O)(=O)Nc1ccc(Cl)c(-c2ccc3c(cnc4[nH]ncc43)c2)c1F [Example 17, N-(4-chloro-2-fluoro-3-(3H-pyrazolo[3,4-c]isoquinolin-7-yl)phenyl)propane-1-sulfonamide] | 6.88 | 6.93
18 | O=S1(=O)CCCN1c1ccc(F)c(-c2ccc3c(cnc4[nH]ncc43)c2)c1F [Example 18, N-(2,4-difluoro-3-(3H-pyrazolo[3,4-c]isoquinolin-7-yl)phenyl)-1,3-propanesultam] | 6.00 | 5.43
19 | CCCS(=O)(=O)Nc1ccc(F)c(-c2cc3cnc4[nH]ncc4c3cc2OC)c1F [Example 19, N-(2,4-difluoro-3-(8-methoxy-3H-pyrazolo[3,4-c]isoquinolin-7-yl)phenyl)propane-1-sulfonamide] | 7.11 | 7.22
20 | CCCS(=O)(=O)Nc1ccc(F)c(-c2cc3cnc4[nH]ncc4c3cc2OC)c1Cl [Example 20, N-(2-chloro-4-fluoro-3-(8-methoxy-3H-pyrazolo[3,4-c]isoquinolin-7-yl)phenyl)propane-1-sulfonamide] | 7.33 | 8.00
21 | COc1cc2c(cnc3[nH]ncc32)cc1-c1c(F)ccc(NS(=O)(=O)CCCF)c1F [Example 21, N-(2,4-difluoro-3-(8-methoxy-3H-pyrazolo[3,4-c]isoquinolin-7-yl)phenyl)-3-fluoropropane-1-sulfonamide] | 7.03 | 7.15
22 | COc1cc2c(cnc3[nH]ncc32)cc1-c1c(F)ccc(NS(=O)(=O)CCCF)c1Cl [Example 22, N-(2-chloro-4-fluoro-3-(8-methoxy-3H-pyrazolo[3,4-c]isoquinolin-7-yl)phenyl)-3-fluoropropane-1-sulfonamide] | 7.18 | 7.92
23 | CCCS(=O)(=O)Nc1ccc(F)c(-c2cc3cnc4[nH]nc(C5CC5)c4c3cc2OC)c1F [Example 23, N-(3-(1-cyclopropyl-8-methoxy-3H-pyrazolo[3,4-c]isoquinolin-7-yl)-2,4-difluorophenyl)propane-1-sulfonamide] | 7.00 | –
24 | CCCS(=O)(=O)Nc1ccc(F)c(-c2cc3cnc4[nH]nc(C5CC5)c4c3cc2OC)c1Cl [Example 24, N-(2-chloro-3-(1-cyclopropyl-8-methoxy-3H-pyrazolo[3,4-c]isoquinolin-7-yl)-4-fluorophenyl)propane-1-sulfonamide] | 6.55 | –
25 | COc1cc2c(cnc3[nH]nc(C4CC4)c32)cc1-c1c(F)ccc(NS(=O)(=O)CCCF)c1Cl [Example 25, N-(2-chloro-3-(1-cyclopropyl-8-methoxy-3H-pyrazolo[3,4-c]isoquinolin-7-yl)-4-fluorophenyl)-3-fluoropropane-1-sulfonamide] | 7.60 | –
26 | COc1cc2c(cnc3[nH]nc(C4CC4)c32)cc1-c1c(F)ccc(NS(=O)(=O)CCCF)c1F [Example 26, N-(3-(1-cyclopropyl-8-methoxy-3H-pyrazolo[3,4-c]isoquinolin-7-yl)-2,4-difluorophenyl)-3-fluoropropane-1-sulfonamide] | 7.53 | 7.31
27 | CCCS(=O)(=O)Nc1ccc(F)c(-c2ccc3c(cnc4[nH]ccc43)c2)c1F [Example 27, N-(2,4-difluoro-3-(3H-pyrrolo[2,3-c]isoquinolin-7-yl)phenyl)propane-1-sulfonamide] | 6.00 | 6.16
28 | CCCS(=O)(=O)Nc1ccc(F)c(-c2ccc3c(cnc4[nH]cnc43)c2)c1F [Example 28, N-(2,4-difluoro-3-(3H-imidazo[4,5-c]isoquinolin-7-yl)phenyl)propane-1-sulfonamide] | 6.51 | 6.41
